# Patent publication US12440471B2, “Compositions and methods for the treatment of bronchopulmonary dysplasia (BPD) and BPD-associated pulmonary hypertension” (AyuVis Research, Inc., priority 2021, dated 2025)
# Columns and labels:
# pre-term lamb BPD model = experiment: Pre-term lamb BPD model: respiratory system mechanics by forced oscillation technique; format: in vivo
# Text: Forced oscillation technique (FOT) allows non-invasive measurement of respiratory system (rs) impedance (Zrs) in uncooperative subjects by applying a pressure stimulus at the airway opening and measuring the resulting flow. The inventors have shown that FOT provides reliable noninvasive measurement of respiratory system mechanics in spontaneously breathing, normal term lambs from birth through the first 5 months of life (Dahl, Bowen et al. 2018). The methods and normal reference values defined in this study provide normal physiological context for determining the pathophysiological consequences of preterm birth.
# [1] = tested on: hyperoxia-exposed BPD mouse model; experiment: BPD mouse model: flow cytometry of lung immune cell populations; format: in vivo
# Method: AVR-48 normalizes two important innate immune cell populations in animals with BPD. Based on the affinity of AVR-48 for TLR4 and the increased TLR4 expression in AVR-48 treated BPD animals, the inventors determined if there would be an impact on immune cell recruitment to the lung interstitium. Flow cytometry was performed to determine absolute numbers of key immune cell populations in the lung of neonatal mice pups from AVIS-48-treated and untreated animals in the RA and BPD groups. […] All other cell populations were similar (FIG. 11).
# [2] = Oral PK of nanomilled formulations in adult SD rats; format: in vivo, rat; details: oral formulation, 100 mg/kg
# Method: The test item, the stabilizer (HPC-SSL) and the surfactant (SDS) were accurately weighed and transferred in a 15-mL amber glass jar charged with 6 mL of yttrium-stabilized zirconia beads (0.8 mm). The suspension was brought to final weight with water in order to achieve the desired final concentration. The formulation was mixed using a vortex for at least 1 minute and then homogenized using a roller mill (Unitized Jar Mill, Model 755 RMV from U.S. Stoneware (purchased from Fisher Scientific Canada cat #08-381-1) at 50 rpm for 48 hours.
# For the animal study, the suspensions prepared at 50 mg/mL were diluted to 10 mg/mL using a blank vehicle prepared using the same proportions of excipients as those indicated in Table I. By diluting the concentrated suspension of AVR-84 a clear solution was obtained whereas for AVR-48 the solution was a homogeneous cloudy solution.
# Animals and dosing: The male SD rats (N=3) were obtained from Charles River. Each animal was weighed before the administration of the test item. […] At the specified time points, t=15′, 30′, 1 h, 2 h, 3 h, 4 h, 6 h, 8 h and 24 h (N=3), blood (100 μL) was collected via the saphenous vein using MINIVETTE® POCT K3-EDTA. The blood samples were centrifuged for 10 min at 965 g and 4° C. within 30 min of collection, to obtain plasma. Plasma samples were kept frozen at −80° C. The plasma samples were thawed on ice and kept on ice during the sample preparation. Thirty μL of plasma samples were mixed with 75 μL of precipitation solution (80% acetonitrile and 20% methanol containing IS) was added. Samples were mixed and centrifuged at 3500 rpm for 10 min at 4° C. Forty μL of the supernatant was transferred to a 96 well plate, and 80 μL of water+0.1% formic acid was added and analyzed using the in house developed HPLC method.
# hPBMC = experiment: Macrophage populations in hPBMC by FACS; format: cell-based, human; details: 72 h
# Method: Briefly, hPBMC were plated in a 96 well plate and treated with AVR 48 for 72 hrs. The cells were washed and stained for CD32, CD14, CD16, HLADR, CD86, CD206 anti-human antibodies and were analyzed by FACS. Dead cells were excluded by live/dead staining (7AAD) during analysis. The % of intermediate macrophages of the parent cells are determined as the macrophages stained positive for both HLADR and CD206 surface markers. The bar graph representing percentage of intermediate macrophages (Mint) of the parent macrophage populations (CD14+CD16+) after treatment with AVR-48. n=2 technical replicates and the experiment is repeated 3 times. AVR-48 binds to both toll-like receptor 4 (TLR4) and CD163 receptor on monocytes. In hPBMC, AVR-48 treatment for 72 h increased the percentage of intermediate macrophages and decreased M1 macrophages.
# [3] = tested on: hyperoxia-exposed BPD mouse model; experiment: BPD mouse model: bronchoalveolar lavage fluid (BALF) analysis; format: in vivo; details: vs BPD group
# Text: For the hyperoxia experiment, newborn pups were exposed to 100% hyperoxia (P0), along with their mothers, in cages in an airtight Plexiglas chamber (OxyCycler; Biospherix, Redfield, NY, USA) as described previously by the present inventors (Syed, Das et al., 2017, Leary, Das et al. 2019, Das, Acharya et al. 2020, relevant portions incorporated herein) for 4 consecutive days (till P4) and removed to RA on P5 to be recovered till P14, so as to emulate the human BPD condition. All pups were sacrificed on P14 for further experimental analyses. The pups without any hyperoxia exposure served as the corresponding RA (normoxia) controls.
# Bronchoalveolar lavage fluid (BALF) Analysis. Pups were sacrificed on PN14, and the trachea was cannulated with a small-caliber needle by instilling PBS endotracheally at […] pressure for 15 minutes. Two volumes of 300 μL of cold 1×PBS were instilled, gently aspirated, and pooled. Samples were centrifuged at 1000×g for 10 minutes at 4° C. The supernatant was collected, and total protein was quantified using the Pierce™ BCA Protein Assay Kit (Fisher Scientific Co, Houston, TX). The total cell count was done using the TC20 cell counter (BioRad, Hercules, CA). Similar method was followed for analyzing the protein concentration in BAL fluid collected from preterm lambs.
# whole cord blood (WCB) = experiment: Cytokines in whole cord blood (WCB); format: cell-based, human
# Text: IL-1β and IFN-Υ were not detected with either AVR-48 alone or in combination with LPS. N=[…], **p<0.05, ***p<0.005, ****p<0.001, One-way ANOVA.
# [4] = AVR-48-treated RA animals vs RA animals
# [5] = treated vs untreated BPD animals, similar to RA control
# [6] = AVR-48 alone or in combination with LPS
smiles,measurement,setting,value
CC(=O)N[C@@H]1C(Oc2ccc([N+](=O)[O-])cc2)OC(CO)C(O)C1O (stereo partly drawn) [AVR-48],reactance (X7 hz),"pre-term lamb BPD model; 3 mg/Kg, day of life 10",less reactance
same,small airway resistance (R7-20 hz),"pre-term lamb BPD model; 3 mg/Kg, day of life 10",less small airway resistance
same,resistance (R7 hz; respiratory system),"pre-term lamb BPD model; 3.0 mg/Kg, day of life 10, relative to placebo",lower resistance
same,all other immune cell populations in the lung,[1]; [4],similar
same,dendritic cells in the lung,[1]; [4],increase
same,macrophages in the lung,[1]; [4],"slight, but statistically significant, decrease"
same,macrophages in the lung,[1]; [5],increased
same,neutrophils in the lung,[1]; [5],decreased
same,Cmax,"[2]; male, SD (Sprague-Dawley), rat, plasma, adult rats n=3 (repeat of figure legend), read-out: Cmax",3.64 ± 0.66 µM
same,Tmax,"[2]; male, SD (Sprague-Dawley), rat, plasma, adult rats n=3, read-out: Tmax",42 ± 18 min
same,half-life,"[2]; male, SD (Sprague-Dawley), rat, plasma, adult rats n=3, read-out: half-life (T v2) (converted)",36 ± 24 min
same,plasma concentration profile,[2],linear decline in drug concentration
same,M1 macrophages,hPBMC,decreased
same,percentage of intermediate macrophages,hPBMC,increased
same,total protein content in BALF,[3]; 10 mg/kg IP,decreased
same,total inflammatory cells in BALF,[3]; 10 mg/kg,significantly decreased
same,IFN-Υ,whole cord blood (WCB); [6],not detected
same,IL-1β,whole cord blood (WCB); [6],not detected
same,IL-10 increase,"whole cord blood (WCB); AVR-48 alone, 10 μM",~1.5 fold
same,IL-10,"whole cord blood (WCB); LPS+AVR-48, 10 μM",increased
same,TNF-α level,whole cord blood (WCB); alone or in combination with LPS,significantly decreased
